Here are results for 2 compounds from patent US11376326B2, “GPC3-targeting therapeutic agent which is administered to patient for whom the GPC3-targeting therapeutic agent is effective” (CHUGAI SEIYAKU KABUSHIKI KAISHA, priority 2015, dated 2022).

Read-outs that look alike come from different tables or passages of the source.

In experiment [1] the test system is advanced hepatocellular carcinoma. To be noted: Asian trial; cited from earlier work.
The next experiment concerns sGPC3-N. The experiment in a line: sGPC3-N in mouse plasma by ELISA (GT30/GT607) at completion of antitumor evaluation. It is filed as in vivo. To be noted: HepG2 graft mice, FIG. 2. As to the method:
(§1) At the completion of the antitumor effect evaluation, plasma was collected from each mouse. Fragments of a soluble form of GPC3 were assayed by two types of ELISA methods differing in the combination of anti-GPC3 antibodies. In order to detect the fragments of a soluble form of GPC3 in ELISA, mouse monoclonal antibodies binding to the N-terminal subunit of human GPC3 were prepared as described in WO2004/022739. Hereinafter, the obtained antibodies are referred to as GT30 and GT607 for the sake of convenience. Also, mouse monoclonal antibodies binding to the C-terminal subunit of human GPC3 were prepared as described in WO2004/022739. Hereinafter, the obtained antibodies are referred to as GT96 and M3C11 for the sake of convenience. […]
(§2) Specifically, the detection of sGPC3-N and the detection of sGPC3-C by ELISA were performed as follows: first, the GT30 antibody diluted to 1 μg/mL with a carbonatebicarbonate buffer (manufactured by Sigma-Aldrich Co., LLC) or the M3C11 antibody adjusted to 128 μg/mL in the same way thereas was added at 50 μL/well to a 96-well microplate (manufactured by Meso Scale Discovery (MSD), Multi-array 96-well plate) and stirred at room temperature for 1 hour. […] After washing five times with a washing solution, a substrate solution (manufactured by Meso Scale Discovery (MSD), MSD Read Buffer T (4×) with Surfactant) was added thereto at 100 μL/well. […]
A general note: In an ELISA, binding on a coated surface is turned into a signal by an enzyme label.

Experiment [2] concerns advanced hepatocellular carcinoma. Particulars: cited from earlier work.
For experiment [3] the test system is unchanged. Particulars: cited from earlier work. The source holds these as a separate data set.
In experiment [4] the test system is human cell line HepG2 strongly expressing GPC3. Nature of the experiment: Antitumor effect in mouse graft models using HepG2. It is filed as in vivo. To be noted: HepG2 graft mice; GC33 or ag-GC33 5 mg/kg tail vein once a week x3; sorafenib 5 mg/kg oral five times a week for 3 weeks; from day 18; FIG. 1. As to the method:
GC33 or ag-GC33 was administered at 5 mg/kg to the tail vein of each mouse once a week a total of three times from 18 days after HepG2 transplantation. Sorafenib was orally administered at 5 mg/kg to each mouse five times a week for 3 weeks from 18 days after HepG2 transplantation.

For the next experiment, the system named is sGPC3-C. Nature of the experiment: sGPC3-C in mouse plasma by ELISA (GT96/M3C11) at completion of antitumor evaluation. It is filed as in vivo. To be noted: HepG2 graft mice, FIG. 3. As to the method: as §1, §2
Another experiment deals with human GPC3 (Homo sapiens, UniProt P51654). To be noted: cited from earlier work.

On to `CNC(=O)c1cc(Oc2ccc(NC(=O)Nc3ccc(Cl)c(C(F)(F)F)c3)cc2)ccn1` [sorafenib], for which, in experiment [1], the survival duration is 6.5 months and the “time to tumor radiological progression” value is recorded as 2.8 months. For the same compound, the “sGPC3-N level in plasma” value with sGPC3-N is recorded as “equivalent to the GC33 administration group”. Further, the “HR of survival duration” value in experiment [2] (both trials, versus placebo) is 0.68. Moreover, in experiment [2] (in vivo), the objective response rate entry is “low” and the “time to symptomatic progression” value is reported as “no prolongation”. Further, in experiment [3] (European and American trial), the “time to tumor radiological progression” value is reported as 5.5 months. In addition, the survival duration in experiment [3] (SHARP trial) is on record as 10.7 months. The “tumor enlargement inhibitory effect (tumor volume)” value in experiment [4] was “the tumor enlargement inhibitory effect was weaker than that of GC33”.

For “GC33: recombinant humanized IgG1 monoclonal antibody binding to human GPC3 with high affinity (WO2006/006693)”, the “sGPC3-N level in plasma” value in the experiment on sGPC3-N is “a lower level of sGPC3-N was found as compared with the control group”. In addition, in the experiment on sGPC3-C, the “sGPC3-C level in plasma” value was “higher in the GC33 administration group compared with the control group, the ag-GC33 group, and the sorafenib group”. In the experiment with human GPC3, the “binding affinity to human GPC3” value is “high affinity”. In addition, the “tumor enlargement inhibitory effect (tumor volume)” value in experiment [4] is recorded as “tumor enlargement was inhibited as compared with the control group”.
